{
  "source": "patent US12629357B2",
  "about": "“Treatment of viral infections, of organ injury, and of related conditions using a HIF prolyl hydroxylase inhibitor or a HIF-alpha stabilizer” (Akebia Therapeutics, Inc., priority 2020, dated 2026)",
  "system": "hospitalized patients with coronavirus disease 2019 (COVID-19)",
  "test": "multicenter, randomized, double-blind, placebo-controlled Bayesian adaptive clinical trial for prevention and treatment of ARDS",
  "format": "in vivo, human",
  "excerpt": "This example describes use of 5-(3-chlorophenyl)-3-hydroxypyridine-2-carbonyl] amino} acetic acid (vadadustat) in a multicenter, randomized, double-blind, placebo-controlled Bayesian adaptive clinical for the prevention and treatment of acute respiratory distress syndrome (ARDS) in hospitalized patients with coronavirus disease 2019 (COVID-19).\nInclusion criteria may include any or all of the following: • 1. Men and women ≥18 years of age. • 2. Laboratory-confirmed diagnosis of COVID-19 by detection of SARS-CoV-2 RNA by RT-PCR (reverse transcription polymerase chain reaction) from any specimen respiratory. • 3. Admitted to the hospital. • 4. Within 24 hours of hospital admission. • 5. Oxygen saturation of hemoglobin by pulse oximetry at room air ≤94%. • 6. Participation in any other clinical trial for the treatment for COVID-19 is not allowed. • 7. Understands the procedures and requirements of treatment and provides written informed consent and authorization for protected health information disclosure.\n• 1. Males with hemoglobin >17.5 g/dL or females >15.5 g/dL. • 2. Hypersensitivity to vadadustat or any of its excipients. • 3. Placed on mechanical ventilation before randomization. • 4. Hemoglobin above the gender specific upper limit of normal (ULN) at randomization. • 5. Aspartate aminotransferase (AST), alanine aminotransferase (ALT), or total bilirubin >2.0×ULN at randomization. • 6. Patients who have erythrocytosis or polycethemia vera. • 7. Patients receiving any of the following medications: sulfasalazine or other BCRP substrates, probenecid or other UGT and OAT1/3 inhibitors. • 8. Women who are pregnant or breastfeeding, or positive pregnancy test before randomization. • 9. Patients on maintenance dialysis. • 10. Patients who have received a solid organ transplant. • 11. Patients who are prisoners.\nFollowing screening, patients are randomized in a 1:1 ratio to either vadadustat 900 mg or placebo. Randomination is stratified by site, and MSOFA score at baseline (<4 and ≥4).\nA subject may receive vadadustat (e.g., 900 mg vadadustat as 6 tablets once daily) for 14 days and without regard for meals at approximately the same time each day. Tablets can be crushed using a pill crusher and administered to an intubated patient through a nasogastric tube.\nFor example, the efficacy of vadadustat (e.g., 900 mg per day) for the prevention and treatment of ARDS among COVID-19 patients may be measured by ≥1 point deterioration on the NIAID ordinal scale for clinical improvement at day seven or day 14 of treatment.\nEfficacy may also be assessed according to any of the following (including any combination thereof): • 1. The proportion of patients at day 14 who are dead (8) or hospitalized, on invasive mechanical ventilation or ECMO (7) or hospitalized, on non-invasive ventilation or high flow oxygen devices (6) on the NIAID-OS. • 2. Proportions of patients with a score of 0 at 14 days on the MSOFA (Modified Sequential Organ Failure Assessment) scale:\n• 3. Average MSOFA scores at day 7 and day 14. • 4. Proportion of patients who develop ARDS or experienced increased ARDS severity from baseline based on the Berlin scale. • 5. Ventilator-free survival at day 7 and day 14. • 6. Overall survival at day 7 and day 14. • 7. Proportion of patients with hypotension (MAP (Mean Arterial Pressure)<70 mm Hg or requirement for inotropes or vasopressors to maintain blood pressure) at day 7 and day 14. • 8. Proportion of patients with acute kidney injury at day 7 and day 14. • 9. Time to hospital discharge.",
  "key": {"[1]": {"settings": "vadadustat 900 mg once daily for 14 days compared to placebo, day 7 and day 14"}},
  "data": [
    {"smiles": "O=C(O)CNC(=O)c1ncc(-c2cccc(Cl)c2)cc1O", "note": "[vadadustat, {[5-(3-chlorophenyl)-3-hydroxypyridine-2-carbonyl]amino}acetic acid]", "values": [
      {"measurement": "proportion of patients who develop ARDS or experienced increased ARDS severity from baseline based on the Berlin scale", "setting": "vadadustat 900 mg once daily for 14 days compared to placebo", "value": "a lower or a reduction"},
      {"measurement": "proportions of patients with a score of 0 at 14 days on the MSOFA", "setting": "vadadustat 900 mg once daily for 14 days compared to placebo, 14 days", "value": "an increase"},
      {"measurement": "average MSOFA scores at day 7 and day 14", "setting": "[1]", "value": "a lower or a reduction"},
      {"measurement": "number of overall survival at day 7 and day 14", "setting": "[1]", "value": "a greater or an increase"},
      {"measurement": "number of ventilator-free survival at day 7 and day 14", "setting": "[1]", "value": "a greater or an increase"},
      {"measurement": "proportion of patients with hypotension (MAP <70 mm Hg or requirement for inotropes or vasopressors to maintain blood pressure) at day 7 and day 14", "setting": "[1]", "value": "a lower or a reduction"},
      {"measurement": "time to hospital discharge", "setting": "vadadustat 900 mg once daily for 14 days versus placebo", "value": "a shorter or a reduction"},
      {"measurement": "proportion of patients with acute kidney injury at day 7 and day 14", "setting": "vadadustat 900 mg once daily for 14 days versus placebo, day 7 and day 14", "value": "a lower or a reduction"}
    ]}
  ]
}
